Reference: patent publication US20240246946A1, “MODULATORS OF TREX1” (Constellation Pharmaceuticals, Inc., priority 2021, published 2024)

Legend:
full length human TREX1 = molecular target: T1, full length human TREX1 (Homo sapiens, UniProt Q9NSU2); assay: hTREX1 Biochemical Assay (fluorescence, dsDNA substrate degradation); details: biochemical, read-out: hTREX1 IC50
T1 construct: N-terminally His-Tev tagged full length human TREX1; made in house; host or cells: E. coli
T1 sequence (Q9NSU2 1-314): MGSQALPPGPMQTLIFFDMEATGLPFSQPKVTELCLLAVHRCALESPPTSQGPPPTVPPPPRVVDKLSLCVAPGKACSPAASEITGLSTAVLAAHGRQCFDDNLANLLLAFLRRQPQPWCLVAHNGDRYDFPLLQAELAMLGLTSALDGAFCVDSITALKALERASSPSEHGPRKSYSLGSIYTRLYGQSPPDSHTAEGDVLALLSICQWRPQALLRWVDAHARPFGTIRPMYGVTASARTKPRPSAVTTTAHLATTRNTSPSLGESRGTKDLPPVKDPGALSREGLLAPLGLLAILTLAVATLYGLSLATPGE
Summary of the method: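 Fluorescence rises as enzyme degrades a quenched TEX615-labelled dsDNA substrate (60 nM) in 50 mM Tris, 150 mM NaCl, 5 mM MgCl2, pH 7.4. Full-length His-Tev-tagged human TREX1, 4 pM, sits with compound 4 hours at 25° C before substrate; reaction 18 hours, stopped with EDTA.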

full length mouse TREX1 = molecular target: T2, full length mouse TREX1 (Mus musculus, UniProt Q91XB0); assay: mTREX1 Biochemical Assay (fluorescence, dsDNA substrate degradation); details: biochemical, read-out: mTREX1 IC50
T2 construct: N-terminally His-Tev tagged full length mouse TREX1; made in house; host or cells: E. coli
T2 sequence (Q91XB0 1-314): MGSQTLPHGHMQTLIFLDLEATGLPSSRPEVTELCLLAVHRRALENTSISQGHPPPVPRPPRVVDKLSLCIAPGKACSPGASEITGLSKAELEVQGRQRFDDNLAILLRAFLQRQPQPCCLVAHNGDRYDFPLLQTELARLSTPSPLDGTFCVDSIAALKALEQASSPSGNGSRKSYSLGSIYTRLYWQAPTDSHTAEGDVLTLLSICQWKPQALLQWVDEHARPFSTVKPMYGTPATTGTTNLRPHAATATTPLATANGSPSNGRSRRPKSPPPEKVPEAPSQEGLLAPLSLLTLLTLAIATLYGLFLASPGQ
Summary of the method: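 Reaction run 18 h at 25° C. with 60 nM TEX615/quencher-labelled dsDNA and 6 pM mouse TREX1 in Tris buffer (pH 7.4, 5 mM MgCl2, 1.0% DMSO), enzyme having sat 4 h with compound across 10 concentrations. EDTA quench; substrate degradation measured as fluorescence increase.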

[1] = molecular target: T3, human TREX2 (residues M44-A279) (Homo sapiens, UniProt Q9BQ50); assay: hTREX2 Biochemical Assay (fluorescence, dsDNA substrate degradation); details: biochemical selectivity for hTREX1 vs hTREX2
T3 construct: human TREX2 (residues M44-A279, expressed in E. coli); made in house; host or cells: E. coli
T3 sequence (Q9BQ50 44-279 isoform Q9BQ50-1): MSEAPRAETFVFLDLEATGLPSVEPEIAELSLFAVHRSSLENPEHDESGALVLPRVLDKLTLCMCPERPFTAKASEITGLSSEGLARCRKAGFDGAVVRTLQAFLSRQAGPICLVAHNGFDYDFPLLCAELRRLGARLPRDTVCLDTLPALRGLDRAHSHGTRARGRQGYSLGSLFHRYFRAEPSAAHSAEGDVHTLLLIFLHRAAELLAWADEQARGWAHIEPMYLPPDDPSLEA
Method: Degradation of the dsDNA liberates free fluorophore to produce a fluorescent signal. Specifically, 7.5 μL of N-terminally His-Tev tagged human TREX2 (residues M44-A279, expressed in E. coli and purified in house) in reaction buffer (50 mM Tris, 150 mM NaCl, 2 mM DTT, 0.1 mg/mL BSA, 0.01% (w/v) Tween-20, 5 mM MgCl2, pH 7.4) was added to a 384-well Black ProxiPlate Plus (PerkinElmer) which already contained compound (150 nL) at varying concentrations as a 10 point dose-response in DMSO. The plate was incubated at 25° C. for 4 hours. Reactions were initiated by adding 7.5 μL of dsDNA substrate (Strand A: 5′ TEX615/GCT AGG CAG 3′; Strand B: 5′ CTG CCT AGC/IAbRQSp (IDT)) in reaction buffer. Final concentrations were 50 pM TREX2, 60 nM dsDNA substrate in reaction buffer with 1.0% DMSO (v/v). After 18 hours at 25° C., reactions were quenched by the addition of 2 μL of 500 mM EDTA. Final concentrations in the quenched reaction mixture were 44 pM TREX2, 53 nM DNA and 59 mM EDTA in a volume of 17 μL. After a 5-minute incubation at room temperature, plates were read in an EnVision plate reader (PerkinElmer) measuring fluorescence at 615 nm following excitation w/570 nm light.

Structure (SMILES) | IC50 (full length human TREX1) | IC50 (full length mouse TREX1) | hTREX1 vs hTREX2 selectivity [1]
CC(c1nc(C(=O)Nc2cnoc2)c(O)c(=O)n1C)C(c1cnn(CCN2CCOCC2)c1)c1ccccc1C#N (single isomer, unassigned) [Example 20 D2E1] | > 10 nM | > 10 nM | B (B = 25 to 50-fold selective for hTREX1)
CC(c1nc(C(=O)Nc2cnoc2)c(O)c(=O)n1C)C(c1cnn(C)c1)c1ccc(F)cc1C#N (single isomer, unassigned) [Example 15 D2E1] | > 10 nM | > 10 nM | B (B = 25 to 50-fold selective for hTREX1)
CC(c1nc(C(=O)Nc2cnoc2)c(O)c(=O)n1C)C(c1ccccc1Cl)c1cnn(C)c1C#N (single isomer, unassigned) [Example 96 D1E2] | > 10 nM | > 10 nM | A (A = <25 fold selective for hTREX1)
CC(c1nc(C(=O)Nc2cnoc2)c(O)c(=O)n1C)C(c1cnc(C(F)(F)F)cn1)c1ccccc1C#N (single isomer, unassigned) [Example 118 D1E2] | > 10 nM | > 10 nM | A (A = <25 fold selective for hTREX1)
Cn1cc(C(c2ccccc2C#N)C(c2nc(C(=O)Nc3cnoc3)c(O)c(=O)n2C)C(F)(F)F)cn1 (single isomer, unassigned) [Example 40 D2E2] | > 10 nM | > 10 nM | B (B = 25 to 50-fold selective for hTREX1)
CC(c1nc(C(=O)Nc2cnoc2)c(O)c(=O)n1C)C(c1cnn(C)c1)c1cc(F)ccc1C#N (single isomer, unassigned) [Example 14 D2E1] | > 10 nM | > 10 nM | A (A = <25 fold selective for hTREX1)
CC(c1nc(C(=O)Nc2cnoc2)c(O)c(=O)n1C)C(c1cnn(CC(C)(C)O)c1)c1ccccc1C#N (single isomer, unassigned) [Example 36 D2E1] | > 10 nM | > 10 nM | B (B = 25 to 50-fold selective for hTREX1)
CC(c1nc(C(=O)Nc2cnoc2)c(O)c(=O)n1C)C(c1ccccc1Cl)n1nccc1C(N)=O (single isomer, unassigned) [Example 147 D1E2] | > 10 nM | > 10 nM | A (A = <25 fold selective for hTREX1)
Cc1ncc(C(c2ccccc2Cl)C(C)c2nc(C(=O)Nc3cnoc3)c(O)c(=O)n2C)nc1C (single isomer, unassigned) [Example 125 D1E1] | > 10 nM | > 10 nM | A (A = <25 fold selective for hTREX1)
COCCn1ncc(C(c2ccccc2C#N)C(C)c2nc(C(=O)Nc3cnoc3)c(O)c(=O)n2C)c1C (single isomer, unassigned) [Example 69 D2E2] | 1 to 10 nM | > 10 nM | B (B = 25 to 50-fold selective for hTREX1)
CC(c1nc(C(=O)Nc2cnoc2)c(O)c(=O)n1C)C(c1cnn(C(F)(F)F)c1)c1ccccc1C#N (single isomer, unassigned) [Example 151 D1E2] | > 10 nM | > 10 nM | A (A = <25 fold selective for hTREX1)
CC(c1nc(C(=O)Nc2cnoc2)c(O)c(=O)n1C)C(c1nnn(C)n1)c1ccccc1C#N (single isomer, unassigned) [Example 79 D1E1] | > 10 nM | > 10 nM | A (A = <25 fold selective for hTREX1)
Cc1cnc(C)c(C(c2cc(F)ccc2Cl)C(C)c2nc(C(=O)Nc3cnoc3)c(O)c(=O)n2C)n1 (single isomer, unassigned) [Example 121 D1E2] | > 10 nM | > 10 nM | A (A = <25 fold selective for hTREX1)
CC(c1nc(C(=O)Nc2cnoc2)c(O)c(=O)n1C)C(c1cnn(C)c1)c1cc(Cl)ccc1C#N (single isomer, unassigned) [Example 26 D2E1] | > 10 nM | > 10 nM | B (B = 25 to 50-fold selective for hTREX1)
CC(c1nc(C(=O)Nc2cnoc2)c(O)c(=O)n1C)C(c1ccccc1Cl)c1cn(C)nc1F (single isomer, unassigned) [Example 130 D1E2] | > 10 nM | > 10 nM | A (A = <25 fold selective for hTREX1)

More lines, now with the values ahead:

IC50 (full length human TREX1) | IC50 (full length mouse TREX1) | hTREX1 vs hTREX2 selectivity [1] | Structure (SMILES)
> 10 nM | > 10 nM | A (A = <25 fold selective for hTREX1) | Cc1ncc(C(c2cc(F)ccc2C#N)C(C)c2nc(C(=O)Nc3cnoc3)c(O)c(=O)n2C)nc1C (single isomer, unassigned) [Example 124 D2E2]
> 10 nM | > 10 nM | A (A = <25 fold selective for hTREX1) | Cc1cc(C(c2cc(F)ccc2C#N)C(C)c2nc(C(=O)Nc3cnoc3)c(O)c(=O)n2C)nn1C (single isomer, unassigned) [Example 112 D2E2]
> 10 nM | > 10 nM | A (A = <25 fold selective for hTREX1) | Cc1cnc(C(c2ccccc2C#N)C(C)c2nc(C(=O)Nc3cnoc3)c(O)c(=O)n2C)c(C)n1 (single isomer, unassigned) [Example 123 D1E2]
> 10 nM | > 10 nM | A (A = <25 fold selective for hTREX1) | Cc1cc(C(c2cc(F)ccc2Cl)C(C)c2nc(C(=O)Nc3cnoc3)c(O)c(=O)n2C)n(C)n1 (single isomer, unassigned) [Example 113 D2E1]
> 10 nM | > 10 nM | A (A = <25 fold selective for hTREX1) | Cc1ncc(C(c2ccccc2Cl)C(C)c2nc(C(=O)Nc3cnoc3)c(O)c(=O)n2C)cn1 (single isomer, unassigned) [Example 44 D1E1]
> 10 nM | > 10 nM | A (A = <25 fold selective for hTREX1) | Cc1nccc(C(c2ccccc2C#N)C(C)c2nc(C(=O)Nc3cnoc3)c(O)c(=O)n2C)n1 (single isomer, unassigned) [Example 83 D2E2]
> 10 nM | > 10 nM | A (A = <25 fold selective for hTREX1) | COCCn1ncc(C(c2cc(F)ccc2C#N)C(C)c2nc(C(=O)Nc3cnoc3)c(O)c(=O)n2C)c1C (single isomer, unassigned) [Example 104 D2E1]
> 10 nM | > 10 nM | A (A = <25 fold selective for hTREX1) | CC(c1nc(C(=O)Nc2cnoc2)c(O)c(=O)n1C)C(c1ccccc1C#N)c1nnnn1C (single isomer, unassigned) [Example 131 D1E1]
1 to 10 nM | > 10 nM | C (C = >50 fold selective for hTREX1) | Cc1cnc(C(c2ccccc2C#N)C(C)c2nc(C(=O)Nc3cnoc3)c(O)c(=O)n2C)c(C)n1 (single isomer, unassigned) [Example 123 D2E1]
1 to 10 nM | > 10 nM | C (C = >50 fold selective for hTREX1) | Cc1nn(C)cc1C(c1cc(F)ccc1C#N)C(C)c1nc(C(=O)Nc2cnoc2)c(O)c(=O)n1C (single isomer, unassigned) [Example 57 D2E1]
